According to US9975884B2, “Kojic acid-derived mannich bases with biological effect” (priority 2015, dated 2018):
Converted amounts (≈) assume the structure as drawn. Like-named read-outs stand apart in the source and are kept apart here.

What was measured:
M. avium (ATCC 15769) = assay: Antimycobacterial activity; type: cell-based, Mycobacterium avium; settings: for MIC: Mycobacterium avium
[1] = Phosphomolybdenum reduction antioxidant power (PRAP); settings: for Phosphomolybdenum Reduction Antioxidant Power (Absorbance at 600 nm ± S.S): 1000 μg/ml
[2] = DPPH free radical scavenging effect; settings: 1000 μg/ml
elastase = assay: Elastase enzyme inhibition; type: biochemical
Solubility in solvents = type: physicochemical
Protocol: Melting point: 180-1<*>C, Yield: 90%. White powder crystals. Insoluble in water, low-solubility in methanol, ethanol and acetone, and soluble in chloroform.
Melting point 196-7° C., Yield: 93%. White powder crystals. Insoluble in water, methanol, ethanol and acetone, but soluble in chloroform.

[3] = DMPD radical scavenging effect; settings: 1000 μg/ml
Metal chelation effect = settings: for iron chelation effect: dose amount of 1000 μg/ml
[4] = Iron reduction antioxidant power (FRAP); settings: 1000 μg/ml
collagenase = assay: Collagenase enzyme inhibition; type: biochemical
Protocol: Physical properties of the compounds such as efficiency of synthesis reactions and melting points are determined. […] Antidermatophytic activity of the compounds against Trichophyton mentagrophytes var. erinacei, Epidermophyton floccosum and Microsporum gypseum as well as their antimycobacterial activity against Mycobacterium tuberculosis H37Rv (ATCC 27294) and M. avium (ATCC 15769) are analyzed under non-toxic concentrations using MRC-5 and He-La cell lines. Antityrosinase activity thereof is determined by spectrophotometric method using L-DOPA as a substrate. Antioxidant activity is determined by the methods of 2,2-diphenyl-1-picrilhydrasil (DPPH), N,N-dimethyl-p-phenylenediamine (DMPD) radical scavenging activity, metal chelation effect, iron-(FRAP), phosphomolybdenum-(PRAP) reducing antioxidant power. Elastase and collagenase enzyme inhibitions are performed to determine anti-aging activity. Due to their antityrosinase, antioxidant, anti-aging, antidermatophytic and antimycobacterial effects, the compounds may be used in medicine, cosmeceutical, food and textile industry.

tyrosinase = type: biochemical
[5] = ATCC15769, value column 8 of the table, read-out: MIC against M. avium

Compound | antioxidant power of phosphomolybdenum structure [1] | Phosphomolybdenum Reduction Antioxidant Power (Absorbance at 600 nm ± S.S) [1] | DPPH Free Radical Scavenging Effect (Scavenging % ± S.S) [2] | elastase enzyme inhibition (elastase) | DMPD Radical Scavenging Effect (Scavenging % ± S.S) [3] | Metal Chelation Effect (Chelation % ± S.S) (Metal chelation effect; 1000 μg/ml) | Iron Reduction Antioxidant Power (Absorbance at 700 nm ± S.S) [4] | Collagenase Enzyme Inhibition (Inhibition % ± S.S) (collagenase; 1000 μg/ml-Stock) | also measured
3-Hydmxy-6-(hydmxymethyl)-2-[{4-(2,6 diclorobenzyl)piperazme-1-il]methyl-4H-pyran-4-one [Compound of Formula 2] | 0.187 ± 0.017 µg/mL | 0.187 ± 0.017 | 12.20 ± 1.72% | No elastase enzyme inhibition is detected | 24.94 ± 1.64% | 58.17 ± 0.99% | 0.217 ± 0.002 | 12.40 ± 4.57% | MIC against M. avium (M. avium (ATCC 15769)): 2 µg/mL; solubility in chloroform (Solubility in solvents): soluble; solubility in methanol, ethanol and acetone (Solubility in solvents): Insoluble; solubility in water (Solubility in solvents): Insoluble; iron chelation effect (Metal chelation effect): 58.17±0.99%
O=C1O[C@H]([C@@H](O)CO)C(O)=C1O [Ascorbic acid] |  |  |  |  | 69.58 ± 0.71% |  |  |  | 
O=c1cc(CO)oc(CN2CCN(Cc3ccc(Cl)c(Cl)c3)CC2)c1O [Compound of Formula 1] | 0.154 ± 0.004 µg/mL | 0.154 ± 0.004 | 14.59 ± 2.52% | No elastase enzyme inhibition is detected | 36.05 ± 3.11% | 67.57 ± 1.30% | 0.274 ± 0.003 | 15.57 ± 2.24% | MIC (M. avium (ATCC 15769); [5]): 2 µg/mL; melting point: 180 to 181 °C; solubility in chloroform (Solubility in solvents): soluble; solubility in methanol, ethanol and acetone (Solubility in solvents): low-solubility; solubility in water (Solubility in solvents): Insoluble; iron chelation effect (Metal chelation effect): 67.57±1.30%; IC50 (tyrosinase) (tyrosinase): 11 ± 1 µg/mL; Low-dose antityrosinase activity (tyrosinase; 0.0025 mg/ml): 23.63 ± 1.65; Low-dose antityrosinase activity (tyrosinase; 0.005 mg/ml): 37.81 ± 0.54; Low-dose antityrosinase activity (tyrosinase; 0.01 mg/ml): 51.25 ± 1.09; Low-dose antityrosinase activity (tyrosinase; 0.025 mg/ml): 56.79 ± 0.44; Low-dose antityrosinase activity (tyrosinase; 0.05 mg/ml): 70.62 ± 1.62; Low-dose antityrosinase activity (tyrosinase; 0.1 mg/ml): 73.57 ± 4.81; Low-dose antityrosinase activity (tyrosinase; 0.25 mg/ml): 80.63 ± 2.01; antityrosinase effect, times higher than kojic acid (tyrosinase; relative to kojic acid): 6 times
O=c1c(O)c(-c2ccc(O)c(O)c2)oc2cc(O)cc(O)c12 [Quercetin, quercetin] |  | 0.320 ± 0.005 | 91.14 ± 0.65% |  |  |  | 2.015 ± 0.032 |  | 
O=c1cc(CO)occ1O [Kojic Acid, Kojic acid] | 0.103 ± 0.006 µg/mL | 0.103 ± 0.006 | 22.51 ± 2.65% | No elastase enzyme inhibition is detected | 41.86 ± 1.10% | 8.89 ± 0.75% | 0.757 ± 0.026 | 15.18 ± 5.92% | MIC (M. avium (ATCC 15769); ATCC15769, read-out: MIC against M. avium): 16 µg/mL (≈ 113 µM); Low-dose antityrosinase activity (tyrosinase; 0.025 mg/ml): 18.65 ± 1.33; Low-dose antityrosinase activity (tyrosinase; 0.05 mg/ml): 44.74 ± 0.53; Low-dose antityrosinase activity (tyrosinase; 0.1 mg/ml): 61.28 ± 2.03; Low-dose antityrosinase activity (tyrosinase; 0.25 mg/ml): 77.44 ± 0.68
NNC(=O)c1ccncc1 [Isoniazide] |  |  |  |  |  |  |  |  | MIC (M. avium (ATCC 15769); [5]): 0.125 µg/mL (≈ 0.911 µM)
O=C(O[C@@H]1Cc2c(O)cc(O)cc2O[C@@H]1c1cc(O)c(O)c(O)c1)c1cc(O)c(O)c(O)c1 [EGCG, epigallocatechin gallate] |  |  |  |  |  |  |  |  | Collagenase Enzyme Inhibition (Inhibition % ± S.S) (collagenase; 15 mM): 44.64 ± 2.87%
O=C(O)CN(CCN(CC(=O)O)CC(=O)O)CC(=O)O [EDTA, ethylenediaminetetraacetic acid] |  |  |  |  |  |  |  |  | Metal Chelation Effect (Chelation % ± S.S) (Metal chelation effect; 2000 μg/ml): 97.66±0.12%
